Columns and labels:
Rattus norvegicus [1] = test: Anti-inflammatory activity in Rattus norvegicus Wistar (rat) assessed as inhibition of carrageenan-induced paw edema at 70 mg/kg, po administered 1 hr prior to carrageenan challenge measured after 4 hr by plethysmometric analysis relative to control; assay type: functional
Rattus norvegicus [2] = test: Anti-inflammatory activity in Rattus norvegicus Wistar (rat) assessed as inhibition of carrageenan-induced paw edema at 70 mg/kg, po administered 1 hr prior to carrageenan challenge measured after 3 hr by plethysmometric analysis relative to control; assay type: functional
Rattus norvegicus [3] = test: Ulcerogenic activity in Rattus norvegicus Wistar (rat) stomach assessed as severity index at 210 mg/kg, po after 17 hr relative to control; assay type: toxicity, organism-based; set-up: dose 210 mg/kg, route oral; conditions: in vivo
Rattus norvegicus [4] = test: Antioxidant activity in Rattus norvegicus Wistar (rat) assessed as malondialdehyde content in gastric mucosa at 210 mg/kg, po after 17 hr by UV spectrophotometric analysis (reference value: 3.23 +/- 0.05 nmol); assay type: functional
Rattus norvegicus [5] = test: Anti-inflammatory activity in Rattus norvegicus Wistar (rat) assessed as inhibition of carrageenan-induced paw edema at 35 mg/kg, po administered 1 hr prior to carrageenan challenge measured after 3 hr by plethysmometric analysis relative to control; assay type: functional
Rattus norvegicus [6] = test: Anti-inflammatory activity in Rattus norvegicus Wistar (rat) assessed as inhibition of carrageenan-induced paw edema at 35 mg/kg, po administered 1 hr prior to carrageenan challenge measured after 4 hr by plethysmometric analysis relative to control; assay type: functional
Rattus norvegicus [7] = test: Antioxidant activity in Rattus norvegicus Wistar (rat) assessed as malondialdehyde content in gastric mucosa at 105 mg/kg, po after 17 hr by UV spectrophotometric analysis (reference value: 3.23 +/- 0.05 nmol); assay type: functional
Rattus norvegicus [8] = test: Ulcerogenic activity in Rattus norvegicus Wistar (rat) stomach assessed as severity index at 105 mg/kg, po after 17 hr relative to control; assay type: toxicity, organism-based; set-up: dose 105 mg/kg, route oral; conditions: in vivo

**Q.** Which inhibition in vivo at 70 mg/kg (Rattus norvegicus [1]) does the source give for `c1ccc(C2=NOC(c3c[nH]c4ccccc34)C2CN2CCCCC2)cc1` (stereo not given) here?
**A.** 48.5%

**Q.** What about the inhibition in vivo at 70 mg/kg (Rattus norvegicus [2]) of the same compound?
**A.** 34.3%

**Q.** Which UI (Rattus norvegicus [3]) does the source give for `Cc1ccc(C2=NOC(c3c[nH]c4ccccc34)C2CN2CCCCC2)cc1` (stereo not given) here?
**A.** 0.5

**Q.** And the Activity (Rattus norvegicus [4])?
**A.** 4.28 nmol

**Q.** And the inhibition in vivo at 70 mg/kg (Rattus norvegicus [1])?
**A.** 51.5%

**Q.** And the inhibition in vivo at 70 mg/kg (Rattus norvegicus [2])?
**A.** 41.2%

**Q.** Which UI (Rattus norvegicus [3]) does the source give for `COc1ccc(C2=NOC(c3c[nH]c4ccccc34)C2CN2CCCCC2)cc1` (stereo not given) here?
**A.** 0.75

**Q.** And the Activity (Rattus norvegicus [4])?
**A.** 4.51 nmol

**Q.** What about the inhibition in vivo at 70 mg/kg (Rattus norvegicus [1]) of the same compound?
**A.** 50.5%

**Q.** What about the inhibition in vivo at 70 mg/kg (Rattus norvegicus [2]) of the same compound?
**A.** 45.1%

**Q.** With `c1ccc(C2=NOC(c3c[nH]c4ccccc34)C2CN2CCOCC2)cc1` (stereo not given) as the compound, how does the inhibition in vivo at 70 mg/kg (Rattus norvegicus [1]) read?
**A.** 45.5%

**Q.** What about the inhibition in vivo at 70 mg/kg (Rattus norvegicus [2]) of the same compound?
**A.** 35.3%

**Q.** For `COc1ccc2c(c1)c(CC(=O)O)c(C)n2C(=O)c1ccc(Cl)cc1` [INDOMETHACIN], which inhibition in vivo at 35 mg/kg (Rattus norvegicus [5]) is on record?
**A.** 65.2%

**Q.** And the inhibition in vivo at 35 mg/kg (Rattus norvegicus [6])?
**A.** 76.5%

**Q.** What about the Activity (Rattus norvegicus [7]) of the same compound?
**A.** 9.29 nmol

**Q.** What about the UI (Rattus norvegicus [8]) of the same compound?
**A.** 2.33

**Q.** Which UI (Rattus norvegicus [3]) does the source give for `Clc1ccc(C2=NOC(c3c[nH]c4ccccc34)C2CN2CCOCC2)cc1` (stereo not given) here?
**A.** 0.75

**Q.** What about the Activity (Rattus norvegicus [4]) of the same compound?
**A.** 4.39 nmol

**Q.** What about the inhibition in vivo at 70 mg/kg (Rattus norvegicus [1]) of the same compound?
**A.** 50.5%

**Q.** What about the inhibition in vivo at 70 mg/kg (Rattus norvegicus [2]) of the same compound?
**A.** 44.1%

**Q.** How did the UI (Rattus norvegicus [3]) turn out when `Clc1ccc(C2=NOC(c3c[nH]c4ccccc34)C2CN2CCCCC2)cc1` (stereo not given) was run?
**A.** 0.583

**Q.** And the Activity (Rattus norvegicus [4])?
**A.** 4.38 nmol

**Q.** What about the inhibition in vivo at 70 mg/kg (Rattus norvegicus [1]) of the same compound?
**A.** 53.5%

**Q.** And the inhibition in vivo at 70 mg/kg (Rattus norvegicus [2])?
**A.** 45.1%

**Q.** With `Cc1ccc(C2=NOC(c3c[nH]c4ccccc34)C2CN2CCOCC2)cc1` (stereo not given) as the compound, how does the inhibition in vivo at 70 mg/kg (Rattus norvegicus [1]) read?
**A.** 48.5%

**Q.** And the inhibition in vivo at 70 mg/kg (Rattus norvegicus [2])?
**A.** 38.2%

**Q.** `COc1ccc(C2=NOC(c3c[nH]c4ccccc34)C2CN2CCOCC2)cc1` (stereo not given) was tested. Which UI (Rattus norvegicus [3]) did it give?
**A.** 0.25

**Q.** What about the Activity (Rattus norvegicus [4]) of the same compound?
**A.** 4.16 nmol

**Q.** What about the inhibition in vivo at 70 mg/kg (Rattus norvegicus [1]) of the same compound?
**A.** 55.5%

**Q.** What about the inhibition in vivo at 70 mg/kg (Rattus norvegicus [2]) of the same compound?
**A.** 44.1%

— ChEMBL document CHEMBL3046271, “Design and synthesis of 3-[3-(substituted phenyl)-4-piperidin-1-ylmethyl/-4-morpholin-4-ylmethyl-4,5-dihydro-isoxazol-5-yl]-1H-indoles as potent anti-inflammatory agents” (Med Chem Res, 2010)
